Source: patent publication US10039843B2, “Paramagnetic solid lipid nanoparticles (pSLNs) containing metal amphiphilic complexes for MRI” (BRACCO IMAGING S.P.A., priority 2012, dated 2018)

Test: Relaxivity values of some known compounds for MRI (Table I)
Type: physicochemical
Conditions: 0.47 T, 25° C., pH 7; for r1p HSA 4%: HSA 4% in NaCl 0.9%
From the text: As mentioned above, pSLNs usually show very high relaxivity in physiological medium, higher than values typically found in non-derivatized hydrophilic gadolinium complexes, in particular when formulated in SLNs, as better detailed in the experimental part for some representative compounds. As an example, relaxivity values for some Gd(III)complexes are indicated below, where values measured in physiologic conditions refer to those in obtained HSA 4% in NaCl 0.9%.

SMILES	r1p HSA 4% [mM⁻¹ s⁻¹]	r1p Human plasma (HP) [mM⁻¹ s⁻¹]	r1p Water [mM⁻¹ s⁻¹]
O=C([O-])CN1CCN(CC(=O)[O-])CCN([C@H](CO)[C@H](O)CO)CCN(CC(=O)[O-])CC1.[Gd+3] (racemic) [Gd-BT-DO3A, Gadobutrol]	4.31	5.76	3.75
C[NH2+]C[C@H](O)[C@@H](O)[C@H](O)[C@H](O)CO.O=C([O-])CN1CCN(CC(=O)[O-])CCN(CC(=O)[O-])CCN(CC(=O)[O-])CC1.[Gd+3] [Gd-DOTA, Gadoterato meglumine [[1,4,7,10-tetraazacyclododecane-1,4,7,10-tetraacetate (4-)] gadolinate (1-)] meglumine]	4.11	4.51	3.61
CC(O)CN1CCN(CC(=O)[O-])CCN(CC(=O)[O-])CCN(CC(=O)[O-])CC1.[Gd+3] (stereo not drawn) [Gd-HP-DO3A, Gadoteridol[10-(2-hydroxyprop-1-yl) -1,4,7,10-tetraazacyclododecane-1,4,7-triacetate(3-)] gadolinium]	3.85	4.80	3.32
